Data from patent US12588677B2, “Herbicidal compositions comprising topramezone” (BASF SE, priority 2024, dated 2026).

What was measured:
Assay type in all cases: in vivo
Setaria virids (SETVI) = assay: Post-emergence application in greenhouse trials
Description: (§1) The culture containers used were plastic pots containing loamy sand with approximately 3.0% of humus as substrate. The seeds of the test plants were sown separately for each species.
(§2) For the post-emergence treatment, the test plants were grown to a plant height as indicated below, depending on the plant habit, and only then treated with the active compounds which had been suspended or emulsified in water. To this end, the test plants were either sown directly, and grown in the same containers, or they were first grown separately as seedlings and transplanted into the test containers a few days prior to treatment.
(§3) Depending on the species, the plants were kept at 10-25° C. and 20-35° C., respectively. The test period extended over 2 to 4 weeks. During this time, the plants were tended and their response to the individual treatments was evaluated.
(§4) Evaluation was carried out using a scale from 0 to 100. 100 means no emergence of the plants, or complete destruction of at least the above-ground parts, and 0 means no damage or normal course of growth. A good herbicidal activity is given at values of at least 70, and very good herbicidal activity is given at values of at least 85.
(§5) Herbicide A-1 and topramezone were, together with addition of 0.5 v/v % MSO (methylated sed oil) as adjuvant, formulated in water as distribution medium (water volume 200 l/ha) and sprayed with commercial flat fan nozzles.
(§6) Herbicide A-1 (342 g/l), topramezone (336 g/l) and DMTA-p (720 g/l) were, together with addition of 0.5 v/v % MSO (methylated sed oil) as adjuvant, formulated in water as distribution medium (water volume 200 l/ha) and sprayed with commercial flat fan nozzles.

[1] = test system: Digitaria sanguinalis (DIGSA); assay: Post-emergence application in greenhouse trials; conditions: 20 DAT
Description: as §1, §2, §3, §4, §5, §6

[2] = test system: Commelina benghalenis (COMBE); assay: Post-emergence application in greenhouse trials
Description: as §1, §2, §3, §4, §5, §6

Zea mays (ZEAMX) [3] = assay: Post-emergence application in greenhouse trials
Description: as §1, §2, §3, §4, §5, §6

Glycine max (GLXMA) [4] = assay: Post-emergence application in greenhouse trials; conditions: 7 DAT
Description: as §1, §2, §3, §4, §5, §6

Avena fatua (AVEFA) = assay: Post-emergence application in greenhouse trials
Description: as §1, §2, §3, §4, §5, §6

[5] = test system: Brachiaria decumbens (BRADC (BRARU)); assay: Post-emergence application in greenhouse trials
Description: as §1, §2, §3, §4, §5, §6

[6] = test system: Amaranthus tamariscinus (AMATA); assay: Post-emergence application in greenhouse trials; conditions: 7 DAT
Description: as §1, §2, §3, §4, §5, §6

[7] = test system: Abutilon theophrasti (ABUTH); assay: Post-emergence application in greenhouse trials; conditions: 7 DAT
Description: as §1, §2, §3, §4, §5, §6

[8] = test system: Erigeron canadensis (ERICA); assay: Post-emergence application in greenhouse trials; conditions: 20 DAT
Description: as §1, §2, §3, §4, §5, §6

Eleusine indica (ELEIN) = assay: Post-emergence application in greenhouse trials; conditions: 7 DAT
Description: as §1, §2, §3, §4, §5, §6

Kochia scoparia (KCHSC) = assay: Post-emergence application in greenhouse trials; conditions: 20 DAT
Description: as §1, §2, §3, §4, §5, §6

[9] = test system: Digitaria sanguinalis (DIGSA); assay: Post-emergence application in field trials; conditions: 21 DAT, height 10-15 cm
Source text: (§7) Post-Emergence Application of Herbicide A-1 (A-1) and Topramezone (B-1) in Field Trials
(§8) Herbicide A-1 (342 g/l) and topramezone (336 g/l) were, together with addition of 0.25 v/v % MSO (methylated sed oil) as adjuvant, formulated in water as distribution medium (water volume 200 l/ha) and sprayed with commercial flat fan nozzles.

Zea mays (ZEAMX) [10] = assay: Post-emergence application in field trials; conditions: height 50-60 cm
Source text: as §7, §8

Glycine max (GLXMA) [11] = assay: Post-emergence application in field trials; conditions: height 7-11 cm, 7 DAT
Source text: as §7, §8

[12] = test system: Setaria verticillata (SETVE); assay: Post-emergence application in field trials; conditions: height 8-16 cm
Source text: as §7, §8

[13] = test system: Abutilon theophrasti (ABUTH); assay: Post-emergence application in field trials; conditions: height 10-12 cm
Source text: as §7, §8

Hordeum vulgare (HORVX) = assay: Post-emergence application in field trials; conditions: height 20-25 cm
Source text: as §7, §8

[14] = 7 DAT, growth stage 11, 3.125 g ai/ha
[15] = 7 DAT, growth stage 11, 120 g ai/ha
[16] = 20 DAT, growth stage 12, 0.5 g ai/ha
[17] = 20 DAT, growth stage 12, 1 g ai/ha
[18] = 7 DAT, growth stage 11, 2 g ai/ha

SMILES: Cc1c(C(=O)c2cnn(C)c2O)ccc(S(C)(=O)=O)c1C1=NOCC1 [B-1, topramezone]
- % herbicidal activity (Setaria virids (SETVI); 20 DAT, growth stage 12, 3.12 g ai/ha): 70%
- % herbicidal activity (Setaria virids (SETVI); SETVI, growth stage 12, B-1 6.25 g ai/ha, 7 DAT): 75%
- % herbicidal activity ([1]; growth stage 13, 3.12 g ai/ha): 85%
- % herbicidal activity ([2]; 20 DAT, growth stage 11, 6.25 g ai/ha): 10%
- % herbicidal activity ([2]; 21 DAT, growth stage 13, 3.125 g ai/ha): 35%
- % herbicidal activity (Zea mays (ZEAMX) [3]; 7 DAT, growth stage 12, 3.125 g ai/ha): 5%
- % herbicidal activity (Zea mays (ZEAMX) [3]; 21 DAT, growth stage 12, 3.125 g ai/ha): 0%
- % herbicidal activity (Glycine max (GLXMA) [4]; growth stage 18, 3.125 g ai/ha): 20%
- % herbicidal activity (Avena fatua (AVEFA); [14]): 10%
- % herbicidal activity (Avena fatua (AVEFA); 21 DAT, growth stage 11, 3.125 g ai/ha): 10%
- % herbicidal activity [5, 14]: 50%
- % herbicidal activity ([5]; 20 DAT, growth stage 12, 6.25 g ai/ha): 75%
- % herbicidal activity ([6]; growth stage 14, B-1 6.25 g ai/ha): 80%
- % herbicidal activity ([7]; growth stage 15, 3.125 g ai/ha): 50%
- % herbicidal activity ([7]; ABUTH, growth stage 13, B-1 3.12 g ai/ha): 45%
- % herbicidal activity ([8]; growth stage 19, 3.12 g ai/ha): 25%
- % herbicidal activity ([8]; growth stage 19, 6.25 g ai/ha): 55%
- % herbicidal activity (Eleusine indica (ELEIN); growth stage 13, B-1 3.12 g ai/ha): 80%
- % herbicidal activity (Kochia scoparia (KCHSC); growth stage 24, 6.25 g ai/ha): 60%
- % herbicidal activity ([9]; 18 g ai/ha): 40%
- % herbicidal activity (Zea mays (ZEAMX) [10]; 21 DAT, 12.5 g ai/ha): 0%
- % herbicidal activity (Zea mays (ZEAMX) [10]; 21 DAT, 18 g ai/ha): 0%
- % herbicidal activity (Zea mays (ZEAMX) [10]; 28 DAT, 12.5 g ai/ha): 0%
- % herbicidal activity (Zea mays (ZEAMX) [10]; 28 DAT, 18 g ai/ha): 0%
- % herbicidal activity (Glycine max (GLXMA) [11]; B-1 12.5 g ai/ha): 45%
- % herbicidal activity (Glycine max (GLXMA) [11]; B-1 18 g ai/ha): 45%
- % herbicidal activity ([12]; 21 DAT, 18 g ai/ha): 45%
- % herbicidal activity ([12]; 42 DAT, 18 g ai/ha): 40%
- % herbicidal activity ([13]; 21 DAT, 12.5 g ai/ha): 60%
- % herbicidal activity ([13]; 21 DAT, 18 g ai/ha): 65%
- % herbicidal activity ([13]; 42 DAT, 12.5 g ai/ha): 60%
- % herbicidal activity ([13]; 42 DAT, 18 g ai/ha): 65%
- % herbicidal activity ([13]; ABUTH, B-1 12.5 g ai/ha, 7 DAT): 50%
- % herbicidal activity ([13]; ABUTH, B-1 18 g ai/ha, 7 DAT): 55%
- % herbicidal activity (Hordeum vulgare (HORVX); 21 DAT, 12.5 g ai/ha): 0%
- % herbicidal activity (Hordeum vulgare (HORVX); 21 DAT, 18 g ai/ha): 10%
- % herbicidal activity (Hordeum vulgare (HORVX); HORVX, B-1 18 g ai/ha, 7 DAT): 20%

SMILES: COC[C@H](C)N(C(=O)CCl)c1c(C)csc1C [C-23, dimethenamid-p (DMTA-p)]
- % herbicidal activity ([2]; 21 DAT, growth stage 13, 120 g ai/ha): 10%
- % herbicidal activity (Zea mays (ZEAMX) [3]; 7 DAT, growth stage 12, 120 g ai/ha): 0%
- % herbicidal activity (Zea mays (ZEAMX) [3]; 21 DAT, growth stage 12, 120 g ai/ha): 0%
- % herbicidal activity (Glycine max (GLXMA) [4]; growth stage 18, 120 g ai/ha): 0%
- % herbicidal activity (Avena fatua (AVEFA); [15]): 0%
- % herbicidal activity (Avena fatua (AVEFA); 21 DAT, growth stage 11, 120 g ai/ha): 40%
- % herbicidal activity [5, 15]: 10%
- % herbicidal activity ([7]; growth stage 15, 120 g ai/ha): 0%

SMILES: CCOC(=O)COc1ccccc1Oc1nc(-n2c(=O)cc(C(F)(F)F)n(C)c2=O)c(F)cc1Cl [A-1, ethyl 2-[2-[[3-chloro-5-fluoro-6-[3-methyl-2,6-dioxo-4-(trifluoromethyl)pyrimidin-1-yl]-2-pyridyl]oxy]phenoxy]acetate]
- % herbicidal activity (Setaria virids (SETVI); [16]): 10%
- % herbicidal activity (Setaria virids (SETVI); [17]): 15%
- % herbicidal activity (Setaria virids (SETVI); SETVI, growth stage 12, A-1 1 g ai/ha, 7 DAT): 15%
- % herbicidal activity (Setaria virids (SETVI); SETVI, growth stage 12, A-1 2 g ai/ha, 7 DAT): 25%
- % herbicidal activity ([1]; growth stage 13, 0.25 g ai/ha): 5%
- % herbicidal activity ([2]; 20 DAT, growth stage 11, 1 g ai/ha): 5%
- % herbicidal activity ([2]; 21 DAT, growth stage 13, 1 g ai/ha): 80%
- % herbicidal activity (Zea mays (ZEAMX) [3]; 7 DAT, growth stage 12, 2 g ai/ha): 60%
- % herbicidal activity (Zea mays (ZEAMX) [3]; 21 DAT, growth stage 12, 2 g ai/ha): 40%
- % herbicidal activity (Glycine max (GLXMA) [4]; growth stage 18, 1 g ai/ha): 90%
- % herbicidal activity (Avena fatua (AVEFA); [18]): 55%
- % herbicidal activity (Avena fatua (AVEFA); 21 DAT, growth stage 11, 2 g ai/ha): 30%
- % herbicidal activity [5, 18]: 50%
- % herbicidal activity ([5]; 20 DAT, growth stage 12, 0.25 g ai/ha): 5%
- % herbicidal activity [5, 16]: 15%
- % herbicidal activity [5, 17]: 30%
- % herbicidal activity ([6]; growth stage 14, A-1 1 g ai/ha): 80%
- % herbicidal activity ([7]; growth stage 15, 0.5 g ai/ha): 85%
- % herbicidal activity ([7]; ABUTH, growth stage 13, A-1 0.25 g ai/ha): 10%
- % herbicidal activity ([7]; ABUTH, growth stage 13, A-1 1 g ai/ha): 50%
- % herbicidal activity ([8]; growth stage 19, 0.5 g ai/ha): 0%
- % herbicidal activity ([8]; growth stage 19, 2 g ai/ha): 40%
- % herbicidal activity (Eleusine indica (ELEIN); growth stage 13, A-1 1 g ai/ha): 45%
- % herbicidal activity (Kochia scoparia (KCHSC); growth stage 24, 0.25 g ai/ha): 0%
- % herbicidal activity ([9]; 12.5 g ai/ha): 70%
- % herbicidal activity (Zea mays (ZEAMX) [10]; 21 DAT, 12.5 g ai/ha): 70%
- % herbicidal activity (Zea mays (ZEAMX) [10]; 21 DAT, 18 g ai/ha): 75%
- % herbicidal activity (Zea mays (ZEAMX) [10]; 28 DAT, 12.5 g ai/ha): 50%
- % herbicidal activity (Zea mays (ZEAMX) [10]; 28 DAT, 18 g ai/ha): 60%
- % herbicidal activity (Glycine max (GLXMA) [11]; A-1 18 g ai/ha): 93%
- % herbicidal activity ([12]; 21 DAT, 12.5 g ai/ha): 45%
- % herbicidal activity ([12]; 42 DAT, 12.5 g ai/ha): 30%
- % herbicidal activity ([13]; 21 DAT, 18 g ai/ha): 92%
- % herbicidal activity ([13]; 42 DAT, 18 g ai/ha): 90%
- % herbicidal activity ([13]; ABUTH, A-1 18 g ai/ha, 7 DAT): 90%
- % herbicidal activity (Hordeum vulgare (HORVX); 21 DAT, 12.5 g ai/ha): 90%
- % herbicidal activity (Hordeum vulgare (HORVX); 21 DAT, 18 g ai/ha): 95%
- % herbicidal activity (Hordeum vulgare (HORVX); HORVX, A-1 12.5 g ai/ha, 7 DAT): 70%
